According to ChEMBL document CHEMBL1201862, “PubChem BioAssay data set” (2004):
Active and inactive are the calls of the source. Unless noted, no cut-off for these calls is given here.

What was measured:
[1] = target: T1, Potassium voltage-gated channel subfamily KQT member 4 (Homo sapiens, UniProt P56696); experiment: activation of KCNQ4 potassium current – automated patch clamp, CHO cells, selectivity assay for KCNQ2 activator project, dose response (AID 493043); format: functional, cell-based
[2] = target: Potassium voltage-gated channel subfamily KQT member 2/member 3 (Rattus norvegicus, UniProt O88943+O88944); experiment: Mode of action assay-Dose response assay for KCNQ2 activators in the KCNQ2/KCNQ3 co-expressing cells on automated patch clamp. [Related pubchem assays (depositor defined):AID2239, AID2258, AID2287]; format: functional
[3] = target: Potassium voltage-gated channel subfamily KQT member 2 (Rattus norvegicus, UniProt O88943); experiment: Mode of action assay-Dose response assay for compounds that activate KCNQ2 potassium channels on automated patch clamp. [Related pubchem assays (depositor defined):AID2239, AID2258, AID2287, AID493113]; format: functional
[4] = target: T1, Potassium voltage-gated channel subfamily KQT member 4; experiment: KCNQ4 thallium flux concentration-response – KCNQ4-expressing cells, selectivity assay for KCNQ2 activator project, dose response (AID 504416); format: functional, cell-based
[5] = target: T2, Short transient receptor potential channel 4 (Mus musculus, UniProt Q9QUQ5); experiment: mouse TRPC4 block via Gq-coupled stimulation – cell-based, acetylcholine stimulus, HEK293 TRPC4, Fluo-4, SAR follow-up (AID 492996); format: functional
T2 sequence (Q9QUQ5 whole entry): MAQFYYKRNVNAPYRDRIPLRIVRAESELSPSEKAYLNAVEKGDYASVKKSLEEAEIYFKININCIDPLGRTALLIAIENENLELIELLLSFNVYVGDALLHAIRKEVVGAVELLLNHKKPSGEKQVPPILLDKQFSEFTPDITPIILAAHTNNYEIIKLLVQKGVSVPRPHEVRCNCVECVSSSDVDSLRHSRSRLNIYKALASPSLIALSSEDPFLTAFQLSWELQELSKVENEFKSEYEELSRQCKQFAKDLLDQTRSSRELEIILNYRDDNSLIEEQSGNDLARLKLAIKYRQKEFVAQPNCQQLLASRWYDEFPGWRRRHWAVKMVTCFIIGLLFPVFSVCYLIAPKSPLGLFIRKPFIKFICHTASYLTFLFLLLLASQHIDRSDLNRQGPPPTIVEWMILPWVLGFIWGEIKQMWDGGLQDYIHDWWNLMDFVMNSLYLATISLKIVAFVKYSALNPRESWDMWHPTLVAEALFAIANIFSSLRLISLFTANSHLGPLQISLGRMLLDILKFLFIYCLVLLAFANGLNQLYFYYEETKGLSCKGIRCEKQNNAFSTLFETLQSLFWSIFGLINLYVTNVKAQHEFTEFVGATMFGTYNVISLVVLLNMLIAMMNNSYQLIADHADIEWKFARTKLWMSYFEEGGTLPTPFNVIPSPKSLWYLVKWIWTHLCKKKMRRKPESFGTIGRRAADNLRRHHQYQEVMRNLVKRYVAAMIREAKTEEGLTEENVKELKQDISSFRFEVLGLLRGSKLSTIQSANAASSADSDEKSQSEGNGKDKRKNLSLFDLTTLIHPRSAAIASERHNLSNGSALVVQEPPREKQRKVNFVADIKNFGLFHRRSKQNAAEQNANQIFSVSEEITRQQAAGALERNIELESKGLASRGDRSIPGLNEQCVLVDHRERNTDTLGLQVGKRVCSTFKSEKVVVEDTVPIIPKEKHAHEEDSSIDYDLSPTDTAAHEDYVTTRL

[6] = target: T2, Short transient receptor potential channel 4; experiment: potency of mouse TRPC4 calcium flux blockers – cell-based, HEK293 TRPC4/mu-opioid, DAMGO stimulus, Fluo-4, dose response (AID 492994); format: functional
[7] = target: T2, Short transient receptor potential channel 4; experiment: SAR Analysis for the identification of selective inhibitors of the transient receptor potential cation channel C4 (TRPC4): TRPC4 Serotonin Receptor CRC MPD assay. [Related pubchem assays (depositor defined):AID2247, AID2256]; format: functional
[8] = target: Short transient receptor potential channel 6 (Mus musculus, UniProt Q61143); experiment: mouse TRPC6 channel blockers, concentration series – HEK293 cells, membrane potential dye, IC50, selectivity assay for selective TRPC4 inhibitor project, dose response (AID 492987); format: functional, cell-based
[9] = target: T2, Short transient receptor potential channel 4; experiment: SAR Analysis for the identification of selective inhibits of the transient receptor potential cation channel C4 (TRPC4): Automated Electrophysiology. [Related pubchem assays (depositor defined):AID2256]; format: functional
[10] = target: Type-1 angiotensin II receptor (Homo sapiens, UniProt P30556); experiment: antagonism of angiotensin II type 1 receptor – cell-based, uHTS hits, selectivity assay for APJ receptor antagonist project, dose response (AID 463214); format: functional;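 note: antagonist potency against angiotensin II stimulated AT1 response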
Beta-galactosidase = Beta-galactosidase (Escherichia coli, UniProt Q8VNN2); experiment: PubChem AID 485352; format: functional
[11] = target: Dual specificity tyrosine-phosphorylation-regulated kinase 1A (Rattus norvegicus, UniProt Q63470); format: biochemical, Homo sapiens
[12] = target: T3, Heat shock factor protein 1 (Mus musculus, UniProt P38532); experiment: decrease of HSF1-responsive luciferase luminescence – cell-based, NIH3T3, dose retest, confirmation (AID 2382); format: functional;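 note: NIH3T3 fibroblasts with HSF1-driven luciferase reporter stressed by proteasome inhibitor MG132; luminescence from HSF1-driven luciferase expression after 8 hours of MG132 stress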
T3 sequence (P38532 whole entry): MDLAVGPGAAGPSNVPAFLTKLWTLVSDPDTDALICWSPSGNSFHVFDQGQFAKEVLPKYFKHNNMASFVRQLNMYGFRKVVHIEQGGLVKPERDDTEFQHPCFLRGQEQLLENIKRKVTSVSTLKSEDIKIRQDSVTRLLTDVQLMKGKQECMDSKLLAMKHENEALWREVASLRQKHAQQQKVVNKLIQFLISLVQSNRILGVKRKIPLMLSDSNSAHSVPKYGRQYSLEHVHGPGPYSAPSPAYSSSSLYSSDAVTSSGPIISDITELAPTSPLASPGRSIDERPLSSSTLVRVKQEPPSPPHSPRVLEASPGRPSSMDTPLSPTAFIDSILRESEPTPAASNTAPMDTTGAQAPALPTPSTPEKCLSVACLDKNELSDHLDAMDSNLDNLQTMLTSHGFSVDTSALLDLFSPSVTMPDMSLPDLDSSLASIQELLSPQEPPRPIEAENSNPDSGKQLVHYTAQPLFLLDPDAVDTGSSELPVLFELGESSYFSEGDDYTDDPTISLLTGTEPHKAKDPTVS

HEK293 = experiment: EBV LMP1 TES2 canonical NF-kB signalling blockers – cell-based, HEK293, luciferase, cherry-pick, dose response (AID 588343); format: functional; conditions: Homo sapiens
[13] = target: Luciferin 4-monooxygenase (Photuris pensylvanica, UniProt Q27757); experiment: inhibition of Cell Titer Glo luciferase signal – biochemical, luminescence, cherry-picks, counter-screen for HSF-1 reporter inhibitor project, dose response (AID 588847)
[14] = target: Latent membrane protein 1 (Human herpesvirus 4 (strain B95-8), UniProt P03230); experiment: LMP1 TES1 pathway selectivity over dsRED control – imaging, HEK293T, dual-color eGFP/dsRED, cherry-picks, selectivity assay for LMP1 NF-kB inhibitor project, dose response (AID 588398); format: functional, cell-based
[15] = HIV-1 AD8 envelope cell-cell fusion blockers – cherry-pick, dose response (AID 652062); format: functional, cell-based;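 note: luciferase signal from cell-cell fusion driven by HIV-1 clade B AD8 Env; potency is for inhibitors of fusion seen as a drop in luminescence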
[16] = off-target signal loss in HeLa-CEM21 co-culture – HeLa F-luc CTL cells, cherry-picked, counter-screen for HIV-1 Env fusion inhibitor project, dose response (AID 652040); format: functional, cell-based;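 note: potency for signal decrease marking cytotoxic or nonspecific inhibition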
[17] = blockers of HIV-1 envelope-mediated cell-cell fusion – cherry-pick, dose response (AID 652057); format: functional, cell-based

T1 sequence (P56696 whole entry): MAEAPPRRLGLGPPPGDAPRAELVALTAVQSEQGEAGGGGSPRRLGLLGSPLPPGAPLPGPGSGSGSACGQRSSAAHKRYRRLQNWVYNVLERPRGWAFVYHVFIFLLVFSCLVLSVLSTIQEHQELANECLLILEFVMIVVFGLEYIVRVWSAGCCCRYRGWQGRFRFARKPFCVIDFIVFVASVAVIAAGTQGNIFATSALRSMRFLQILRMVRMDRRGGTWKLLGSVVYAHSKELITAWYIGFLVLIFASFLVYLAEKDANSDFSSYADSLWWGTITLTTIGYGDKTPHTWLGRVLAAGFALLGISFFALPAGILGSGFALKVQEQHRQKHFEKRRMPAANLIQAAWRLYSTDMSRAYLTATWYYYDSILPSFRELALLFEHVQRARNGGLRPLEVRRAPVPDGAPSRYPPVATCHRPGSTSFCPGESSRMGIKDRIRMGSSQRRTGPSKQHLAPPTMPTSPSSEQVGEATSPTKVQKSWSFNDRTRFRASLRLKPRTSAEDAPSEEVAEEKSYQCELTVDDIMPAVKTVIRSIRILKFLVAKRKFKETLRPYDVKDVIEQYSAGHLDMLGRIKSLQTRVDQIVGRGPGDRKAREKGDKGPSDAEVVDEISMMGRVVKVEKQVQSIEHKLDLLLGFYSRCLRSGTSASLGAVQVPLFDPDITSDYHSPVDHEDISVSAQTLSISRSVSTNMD
Potassium voltage-gated channel subfamily KQT member 2, sequence (O88943 whole entry): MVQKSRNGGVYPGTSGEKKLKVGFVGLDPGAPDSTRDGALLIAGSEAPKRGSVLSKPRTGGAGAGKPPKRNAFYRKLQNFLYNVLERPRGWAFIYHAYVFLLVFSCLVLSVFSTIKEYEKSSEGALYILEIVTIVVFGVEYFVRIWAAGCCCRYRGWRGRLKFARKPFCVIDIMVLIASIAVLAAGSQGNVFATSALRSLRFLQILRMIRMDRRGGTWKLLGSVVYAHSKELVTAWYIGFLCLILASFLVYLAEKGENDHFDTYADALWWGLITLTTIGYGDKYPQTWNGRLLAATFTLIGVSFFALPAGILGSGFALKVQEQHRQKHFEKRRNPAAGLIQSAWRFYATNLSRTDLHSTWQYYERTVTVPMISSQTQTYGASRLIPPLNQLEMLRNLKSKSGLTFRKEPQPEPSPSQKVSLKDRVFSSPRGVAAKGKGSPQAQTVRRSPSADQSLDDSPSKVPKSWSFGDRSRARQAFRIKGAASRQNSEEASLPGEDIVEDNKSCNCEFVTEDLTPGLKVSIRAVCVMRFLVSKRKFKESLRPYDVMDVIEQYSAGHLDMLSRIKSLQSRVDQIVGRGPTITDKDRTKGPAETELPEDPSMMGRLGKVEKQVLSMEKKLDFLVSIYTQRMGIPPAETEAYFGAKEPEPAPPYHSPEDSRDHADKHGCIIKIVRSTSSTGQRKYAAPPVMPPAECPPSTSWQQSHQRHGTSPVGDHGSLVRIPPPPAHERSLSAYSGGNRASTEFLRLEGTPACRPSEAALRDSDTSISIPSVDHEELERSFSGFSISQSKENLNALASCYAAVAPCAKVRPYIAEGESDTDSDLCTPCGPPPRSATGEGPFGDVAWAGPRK
Potassium voltage-gated channel subfamily KQT member 2/member 3, sequence (O88943 whole entry): as above
Potassium voltage-gated channel subfamily KQT member 2/member 3, sequence (O88944 whole entry): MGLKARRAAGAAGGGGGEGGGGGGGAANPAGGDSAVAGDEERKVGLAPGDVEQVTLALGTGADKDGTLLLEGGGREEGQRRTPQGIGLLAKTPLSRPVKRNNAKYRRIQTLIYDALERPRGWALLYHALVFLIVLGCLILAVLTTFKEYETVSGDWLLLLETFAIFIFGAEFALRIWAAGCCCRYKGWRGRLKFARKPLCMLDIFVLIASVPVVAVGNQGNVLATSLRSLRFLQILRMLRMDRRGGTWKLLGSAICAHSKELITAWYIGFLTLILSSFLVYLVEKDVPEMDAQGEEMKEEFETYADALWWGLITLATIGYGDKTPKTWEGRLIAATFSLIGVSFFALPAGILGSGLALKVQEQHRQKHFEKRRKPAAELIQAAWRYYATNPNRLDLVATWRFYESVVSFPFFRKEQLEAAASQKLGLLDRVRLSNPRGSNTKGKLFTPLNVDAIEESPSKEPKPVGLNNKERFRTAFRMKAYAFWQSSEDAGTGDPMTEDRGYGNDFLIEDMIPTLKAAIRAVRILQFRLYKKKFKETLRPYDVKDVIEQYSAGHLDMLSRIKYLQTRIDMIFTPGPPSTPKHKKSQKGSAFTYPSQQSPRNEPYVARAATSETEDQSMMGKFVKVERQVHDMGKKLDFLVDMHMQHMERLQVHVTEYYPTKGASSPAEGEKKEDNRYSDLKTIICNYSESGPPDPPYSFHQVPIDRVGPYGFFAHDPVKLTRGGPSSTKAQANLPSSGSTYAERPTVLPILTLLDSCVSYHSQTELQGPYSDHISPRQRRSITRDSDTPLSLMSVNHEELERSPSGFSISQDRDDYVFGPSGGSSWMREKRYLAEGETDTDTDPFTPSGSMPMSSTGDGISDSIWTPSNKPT
Type-1 angiotensin II receptor, sequence (P30556 whole entry): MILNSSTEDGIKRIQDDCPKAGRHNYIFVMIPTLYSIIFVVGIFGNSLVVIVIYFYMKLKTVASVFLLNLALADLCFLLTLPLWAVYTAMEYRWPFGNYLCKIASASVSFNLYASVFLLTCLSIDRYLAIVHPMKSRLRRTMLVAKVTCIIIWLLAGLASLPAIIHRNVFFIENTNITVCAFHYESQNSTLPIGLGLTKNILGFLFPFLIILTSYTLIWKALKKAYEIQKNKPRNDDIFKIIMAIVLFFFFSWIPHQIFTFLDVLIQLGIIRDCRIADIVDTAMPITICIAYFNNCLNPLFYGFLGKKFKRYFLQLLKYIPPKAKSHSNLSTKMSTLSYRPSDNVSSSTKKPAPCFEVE
Luciferin 4-monooxygenase, sequence (Q27757 whole entry): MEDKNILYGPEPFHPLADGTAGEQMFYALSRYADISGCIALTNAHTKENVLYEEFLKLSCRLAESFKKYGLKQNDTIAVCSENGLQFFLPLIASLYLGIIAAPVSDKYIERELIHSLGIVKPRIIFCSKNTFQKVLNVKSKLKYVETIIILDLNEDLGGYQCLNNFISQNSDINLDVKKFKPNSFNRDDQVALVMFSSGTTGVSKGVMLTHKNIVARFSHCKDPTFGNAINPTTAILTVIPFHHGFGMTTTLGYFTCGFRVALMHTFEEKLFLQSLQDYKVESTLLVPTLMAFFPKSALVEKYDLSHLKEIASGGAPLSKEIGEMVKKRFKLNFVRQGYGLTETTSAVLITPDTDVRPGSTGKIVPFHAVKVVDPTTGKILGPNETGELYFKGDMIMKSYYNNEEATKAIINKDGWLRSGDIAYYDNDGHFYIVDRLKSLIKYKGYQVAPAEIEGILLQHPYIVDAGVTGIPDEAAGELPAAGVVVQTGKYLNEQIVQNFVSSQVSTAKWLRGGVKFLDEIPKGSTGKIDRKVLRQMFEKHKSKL
Beta-galactosidase, sequence (Q8VNN2 whole entry): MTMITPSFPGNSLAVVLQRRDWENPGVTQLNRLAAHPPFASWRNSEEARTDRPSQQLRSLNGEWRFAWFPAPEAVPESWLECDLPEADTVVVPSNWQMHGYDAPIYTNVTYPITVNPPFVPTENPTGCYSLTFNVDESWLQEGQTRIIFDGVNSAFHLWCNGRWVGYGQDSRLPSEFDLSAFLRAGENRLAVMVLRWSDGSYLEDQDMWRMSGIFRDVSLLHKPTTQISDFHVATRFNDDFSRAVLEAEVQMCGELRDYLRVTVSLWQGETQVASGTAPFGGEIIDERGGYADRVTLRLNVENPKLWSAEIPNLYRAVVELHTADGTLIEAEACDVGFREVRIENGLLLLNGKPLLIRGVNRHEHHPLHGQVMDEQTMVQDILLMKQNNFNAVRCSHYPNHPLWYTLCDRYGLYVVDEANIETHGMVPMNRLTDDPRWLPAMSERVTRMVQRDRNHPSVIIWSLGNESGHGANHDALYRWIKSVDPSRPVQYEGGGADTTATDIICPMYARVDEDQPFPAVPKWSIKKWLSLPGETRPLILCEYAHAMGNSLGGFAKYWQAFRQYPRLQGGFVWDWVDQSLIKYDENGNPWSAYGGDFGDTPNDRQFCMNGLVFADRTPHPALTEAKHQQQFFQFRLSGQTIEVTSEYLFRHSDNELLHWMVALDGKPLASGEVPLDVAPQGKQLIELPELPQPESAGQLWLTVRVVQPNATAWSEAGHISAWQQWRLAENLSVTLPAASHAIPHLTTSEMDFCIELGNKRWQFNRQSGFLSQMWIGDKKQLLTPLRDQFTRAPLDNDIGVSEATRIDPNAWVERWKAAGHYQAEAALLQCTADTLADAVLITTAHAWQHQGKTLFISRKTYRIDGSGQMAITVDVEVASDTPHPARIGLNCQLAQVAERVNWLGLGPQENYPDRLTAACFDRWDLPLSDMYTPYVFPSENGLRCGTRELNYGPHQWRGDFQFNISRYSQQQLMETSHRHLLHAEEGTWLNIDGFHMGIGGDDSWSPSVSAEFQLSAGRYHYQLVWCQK
Latent membrane protein 1, sequence (P03230 whole entry, the tested form may be a part): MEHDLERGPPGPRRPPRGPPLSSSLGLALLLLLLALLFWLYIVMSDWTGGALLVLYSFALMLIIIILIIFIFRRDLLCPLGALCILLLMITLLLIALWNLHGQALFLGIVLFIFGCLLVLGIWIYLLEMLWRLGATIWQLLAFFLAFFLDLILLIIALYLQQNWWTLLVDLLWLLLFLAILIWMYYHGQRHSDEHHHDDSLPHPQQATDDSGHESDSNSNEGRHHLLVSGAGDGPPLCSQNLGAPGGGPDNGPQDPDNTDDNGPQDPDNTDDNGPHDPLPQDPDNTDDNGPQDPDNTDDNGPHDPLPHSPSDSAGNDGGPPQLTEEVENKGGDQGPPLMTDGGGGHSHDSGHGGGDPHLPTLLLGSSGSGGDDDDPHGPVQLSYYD

## CCCCC(=O)Nc1c(C)cc(C)cc1Cl
[1]
  EC50: 3.15 µM (active)
[2]
  EC50: 2.69 µM (active)
[3]
  EC50: 2.14 µM (active)
[4]
  EC50: 18.7 µM (active)

## CCc1ccc2nc(N3CCCC3)cc(C)c2c1
[5]
  IC50: 9.52 µM (active)
[6]
  IC50: 0.483 µM (active)
[7]
  IC50: 4.23 µM (active)
[8]
  IC50: 14.1 µM (active)
[9]
  IC50: 2.05 µM (active)

## CC(=O)Oc1ccc(/C=C2/SC(=S)N(Cc3ccccc3)C2=O)cc1
[10]
  IC50: > 40 µM (not active)
Beta-galactosidase
  EC50: > 40 µM (inactive)

## CC1=C(C(=O)OCc2ccc3c(c2)OCO3)C(c2ccc(F)cc2)NC(=O)N1 (centres undefined)
[11]
  AC50: 1.85 µM (active)
[12]
  EC50: < 0.16 µM (active)
HEK293
  AC50: 3.36 µM (active)
[13]
  AC50: > 52 µM (inactive)
[14]
  AC50: 9.67 µM (active)
[15]
  AC50: 1.47 µM (active)
[16]
  AC50: 0.576 µM (active)
[17]
  AC50: 0.284 µM (active)
